Test results taken from paper PMC11061835, “Elucidating the Mechanism of Metabolism of Cannabichromene by Human Cytochrome P450s” (Journal of Natural Products, 2024).
Values joined by “and” are separate entries in the source; they are usually repeats but may differ in a detail not shown here. Identical values can stand only once.

How the values were obtained:
CYP2C8 [1] = molecular target: T1, CYP2C8 (Homo sapiens, UniProt P10632); assay: Spectroscopic titration (Soret shift), CYP2C8; type: binding; details: CYP2C8, absence of CPR
T1 construct: His-tag; made in house; host or cells: E. coli DH-5α with pTGro7 plasmid
T1 sequence (P10632 1-490): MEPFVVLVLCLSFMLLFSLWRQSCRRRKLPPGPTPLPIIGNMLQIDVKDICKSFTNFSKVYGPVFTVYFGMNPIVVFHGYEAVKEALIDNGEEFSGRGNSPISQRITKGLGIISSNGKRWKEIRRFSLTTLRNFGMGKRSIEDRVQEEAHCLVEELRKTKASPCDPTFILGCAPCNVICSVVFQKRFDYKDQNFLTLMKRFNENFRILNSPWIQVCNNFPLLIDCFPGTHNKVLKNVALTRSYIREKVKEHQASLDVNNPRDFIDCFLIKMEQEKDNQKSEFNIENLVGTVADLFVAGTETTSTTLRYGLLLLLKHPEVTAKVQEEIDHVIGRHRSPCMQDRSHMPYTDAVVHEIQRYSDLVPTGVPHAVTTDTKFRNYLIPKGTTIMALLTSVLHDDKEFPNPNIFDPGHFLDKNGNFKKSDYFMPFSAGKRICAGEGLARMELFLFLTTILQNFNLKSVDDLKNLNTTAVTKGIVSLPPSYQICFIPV
Description: CBC binding to various CYPs was determined by analyzing the Soret shift from ∼417 to ∼390 nm. CBC (stock 10 mM) was dissolved in ethanol and titrated with different CYPs at room temperature. Buffer-exchanged CYP2J2, CYP2D6, CYP3A4, and CYP2C8 (concentrations of proteins were kept between 4 and 5 μM) were dissolved in 0.1 M phosphate buffer (pH = 7.4), and initial spectra were recorded from 200 to 800 nm with a prominent peak at 417 nm. The concentration of CBC was varied from 0 to 100 μM keeping the final concentration of substrate in EtOH not more than 1% in cuvette. 0–4 μL of stock CBC was added using a Hamilton syringe in both the sample and blank cuvettes. The mixture was incubated for 5 min at 37 °C, and absorbance spectra were recorded using a Cary Bio 300 UV–vis spectrophotometer (Agilent Technologies, Santa Clara, CA). To eliminate the background absorbance, we derived the final spectra by […].

[2] = molecular target: cannabinoid receptor 2 (CB2); parameters: method as in PMID 31368508; details: agonist; cited from earlier work
[3] = parameters: method as in PMID 28640062; details: patients who consumed a CBD oil, cited from earlier work
[4] = In vivo metabolism of CBC, mouse blood plasma (LC-MS/MS); parameters: species or system mice
Description: CBC was dissolved in ethanol, and an aliquot was then mixed with Tween-80. Ethanol was removed by evaporation. The mixture was then reconstituted with PBS to a 6% final concentration of Tween-80. C 57BL/6J female mice, age 8–10 weeks, were injected with 20 mg/kg CBC or vehicle intravenously (IV, n = 3) via the tail vein or intraperitoneally (IP, n = 3). Blood samples were collected terminally by cardiac puncture into heparin-coated syringes at 0.5 and 2 h after CBC treatment and transferred into tubes. The tubes were then centrifuged, and plasma samples were removed and stored at −80 °C.
200 μL of blood plasma from each sample was taken into a glass tube, and 500 μL of extraction solvent (hexane:ethyl acetate 80:20 v/v) was added. The remaining extraction steps are similar to those used for CBC metabolite extraction from CYPs as mentioned earlier.
Samples were analyzed with the 5500 QTRAP LC/MS/MS system (Sciex, Framingham, MA) in the Metabolomics Lab of Roy J. Carver Biotechnology Center, University of Illinois at Urbana–Champaign. Software Analyst 1.7.1 was used for data acquisition and analysis. The 1200 series HPLC system (Agilent Technologies, Santa Clara, CA) includes a degasser, an autosampler, and a binary pump. The LC separation was performed on a Phenomenex Gemini C6-phenyl column (2 × 100 mm, 3 μm) with mobile phase A (0.1% formic acid in water) and mobile phase B (0.1% formic acid in acetonitrile). The flow rate was 0.2 mL/min. The linear gradient was as follows: 0–2 min, 95% A; 10 min, 50% A; 20–25 min, 0% A; 25.1–31 min, 95% A. The autosampler was set at 10 °C. The injection volume was 5 μL. Mass spectra were acquired under positive electrospray ionization (ESI) with the ion spray voltage of +5000 V. The source temperature was 400 °C. The curtain gas, ion source gas 1, and ion source gas 2 were 325, 65, and 55 psi, respectively. Multiple reaction monitoring (MRM) was used for quantitation: CBC m/z 315.1 → m/z 135.0; 1-acetoxy-6′,7′-dihydroxy-CBC (JM-I-73) m/z 349.1→ m/z 193.0; 1″-hydroxy-CBC (JM-I-66) m/z 331.1→ m/z 275.1; 6′,7′-epoxy-CBC (JM-I-27) m/z 331.1→ m/z 193.0; 7′,10′-ene-6′-hydroxy-CBC (JM-I-30) m/z 331.1→ m/z 193.0; 8′-hydroxy-CBC (JM-I-32) […]→ m/z 77.0. Internal standard EET-EA-d11 was monitored at m/z 375.2→ m/z 357.1.

CYP2C8 [5] = molecular target: T1, CYP2C8; assay: CBC metabolism by CYP2C8; type: in vitro ADME; details: CYP2C8, from Vmax
Description: (§1) To study the kinetics of CBC metabolism, concentration dependent metabolism of CBC was carried out in the presence of various CYPs using the following procedure. CYP2J2, CYP2C8, CYP2D6, CYP2C9, and CYP3A4 (final concentration 0.5 μM) were initially dissolved in lipid containing POPC:POPS (8:2 v/v) followed by addition of CPR (final concentration 0.6 μM) in 0.1 M potassium phosphate buffer (pH 7.4). CBC (5–80 μM) was added and incubated at 37 °C for 10 min. The reaction was triggered by NADPH and extracted using the exact sample protocol as mentioned in the HLM section.
(§2) Samples were analyzed with the 5500 QTRAP LC/MS/MS system (Sciex, Framingham, MA) in the Metabolomics Lab of Roy J. Carver Biotechnology Center, University of Illinois at Urbana–Champaign. Software Analyst 1.7.1 was used for data acquisition and analysis. The 1200 series HPLC system (Agilent Technologies, Santa Clara, CA) includes a degasser, an autosampler, and a binary pump. […] Multiple reaction monitoring (MRM) was used for quantitation: CBC m/z 315.1 → m/z 135.0; 1-acetoxy-6′,7′-dihydroxy-CBC (JM-I-73) m/z 349.1→ m/z 193.0; 1″-hydroxy-CBC (JM-I-66) m/z 331.1→ m/z 275.1; 6′,7′-epoxy-CBC (JM-I-27) m/z 331.1→ m/z 193.0; 7′,10′-ene-6′-hydroxy-CBC (JM-I-30) m/z 331.1→ m/z 193.0; 8′-hydroxy-CBC (JM-I-32) […]→ m/z 77.0. Internal standard EET-EA-d11 was monitored at m/z 375.2→ m/z 357.1.

CYP2C9 = assay: CBC metabolism by CYP2C9; type: in vitro ADME, human
Description: as §1, §2

Compound | ΔAmax (spin state change due to heme perturbation) (CYP2C8 [1]) | Kd (CYP2C8 [1]; read-out: Kd(app)) | Ki [2] [µM] | detectable level of CBC in plasma ([3]; plasma) [ng/mL] | detectable level of CBC in urine ([3]; urine) [ng/mL] | detection as product of CBC metabolism in mouse plasma ([4]; mice, CBC 20 mg/kg IV or IP, plasma at 0.5 and 2 h) | detection in blood plasma after 2 h of CBC administration ([4]; mice, both IP and IV, 2 h) | plasma concentration relative to the 6′,7′-epoxy compound ([4]; mouse plasma 0.5 h after CBC 20 mg/kg, depending on mode of administration (IP or IV)) | ratio of 8′-hydroxy-CBC to 6′,7′-epoxy-CBC formed (CYP2C8 [5]) | extent of 8′-hydroxy-CBC formation relative to 6′,7′-epoxy-CBC (CYP2C9)
CCCCCc1cc(O)c2c(c1)OC(C)(CCC=C(C)C)C=C2 (stereo not shown) [CBC, Cannabichromene] | 0.15 ± 0.00 and ~0.15 | 38.1 µM and ~38 µM | ~0.1 | ~60 | ~94 |  |  |  |  | 
CCCCCc1cc(O)c2c(c1)OC(C)(CC/C=C(\C)CO)C=C2 (stereo not shown) [8′-hydroxy-CBC] |  |  |  |  |  | detected | not detected | 4–8 times | around 5 | approximately half
